Consider 1 compound from patent US11059815B2, “Synthesis of small molecule histone deacetylase 6 degraders, compounds formed thereby, and pharmaceutical compositions containing them” (Wisconsin Alumni Research Foundation, priority 2018, dated 2021).

The experiment addresses T1, HDAC6 (Mus musculus, UniProt Q9Z2V5).
T1 construct: endogenous in cells; host or cells: mouse immortalized cell line 4935
T1 sequence (Q9Z2V5 1-1149): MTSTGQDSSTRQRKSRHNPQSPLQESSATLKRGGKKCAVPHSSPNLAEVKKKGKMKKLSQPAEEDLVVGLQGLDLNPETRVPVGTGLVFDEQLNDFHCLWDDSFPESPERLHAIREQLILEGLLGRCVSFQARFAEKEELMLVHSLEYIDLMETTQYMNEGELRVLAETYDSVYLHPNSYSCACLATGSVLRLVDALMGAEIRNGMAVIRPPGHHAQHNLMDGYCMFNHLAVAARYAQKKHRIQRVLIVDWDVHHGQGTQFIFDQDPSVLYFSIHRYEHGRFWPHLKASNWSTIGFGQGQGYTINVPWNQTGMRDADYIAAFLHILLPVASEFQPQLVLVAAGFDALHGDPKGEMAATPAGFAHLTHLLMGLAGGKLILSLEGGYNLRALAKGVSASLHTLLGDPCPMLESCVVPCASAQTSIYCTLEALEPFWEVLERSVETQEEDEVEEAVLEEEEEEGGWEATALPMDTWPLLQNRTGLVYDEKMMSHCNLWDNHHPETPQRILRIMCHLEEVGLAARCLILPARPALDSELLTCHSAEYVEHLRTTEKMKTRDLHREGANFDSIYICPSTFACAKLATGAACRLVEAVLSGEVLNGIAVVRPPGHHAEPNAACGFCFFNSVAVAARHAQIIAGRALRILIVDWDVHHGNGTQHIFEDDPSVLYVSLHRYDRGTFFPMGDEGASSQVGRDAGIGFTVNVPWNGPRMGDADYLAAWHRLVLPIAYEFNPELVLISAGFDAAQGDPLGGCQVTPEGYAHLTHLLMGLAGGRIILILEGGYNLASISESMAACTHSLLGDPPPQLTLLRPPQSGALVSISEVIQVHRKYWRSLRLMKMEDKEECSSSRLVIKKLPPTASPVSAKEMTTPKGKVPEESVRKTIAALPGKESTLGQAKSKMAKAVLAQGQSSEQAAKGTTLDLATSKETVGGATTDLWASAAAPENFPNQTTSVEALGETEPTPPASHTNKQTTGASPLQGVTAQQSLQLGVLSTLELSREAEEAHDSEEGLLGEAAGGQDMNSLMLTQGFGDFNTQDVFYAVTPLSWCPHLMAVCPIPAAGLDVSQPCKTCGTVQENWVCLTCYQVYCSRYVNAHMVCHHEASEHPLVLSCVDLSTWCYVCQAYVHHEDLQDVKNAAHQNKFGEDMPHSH
Nature of the experiment: In-cell ELISA of HDAC6 in mice immortalized cell line 4935. The class given is cell-based. The settings on record: mice immortalized cell line 4935, in-cell ELISA. The method, then:
FIG. 19 is a dose-response curve for HDAC6 expression as a function of concentration for compounds 2 and 3j from Part 2 of the Example section.
The degradation efficiency of HDAC6 induced by 2 and 3j in mice immortalized cell line 4935 was also tested using western blot and in-cell ELISA. In concentrations ranging from 10 nM to 10 μM, VHL-based degrader 3j induced more HDAC6 degradation and tubulin acetylation than CRBN-based degrader 2 (data not shown). […] The maximal degradation percentage for HDAC6 induced by 3j is 56.8%, which is better than 45.3% of Dmax induced by compound 2. […] The VHL E3 ligase-based degrader 3j may have advantages over CRBN-based degrader 2 in animal studies using mice as the model system.

`CCCCN(Cc1ccc(C(=O)NO)cc1)C(=O)Nc1ccc(OCCCCCn2cc(CNc3cccc4c3C(=O)N(C3CCC(=O)NC3=O)C4=O)nn2)cc1` (centres unmarked) [Compound 2] yielded a DC50 of about 17 nM. Moreover, where the note is “read-out: maximal degradation percentage for HDAC6 (Dmax)”, the Dmax was determined as 45.3%.
